Measured values as given in patent US8333970B2, “Methods of monitoring the efficacy of anti-CD40 antibodies in treating a subject having an inflammatory or autoimmune disease” (Novartis AG, priority 2005, dated 2012).
Entries after “also recorded” stand apart in the source; their conditions may differ.

Legend:
[1] = test system: CD40-expressing target cells; test: Antibody dependent cellular cytotoxicity (ADCC); type: cell-based; settings: native antibodies
Text: (§1) 2, 2000, and PCT International Application No. PCT/US01/30857, also titled “Human Anti-CD40 Antibodies,” filed Oct. 2, 2001, both of which are herein incorporated by reference in their entirety.
Clones from 7 other hybridomas were identified as having antagonistic activity. Based on their relative antagonistic potency and ADCC activities, two hybridoma clones were selected for further evaluation (Table 1 below). They are named 131.2F8.5.9 (5.9) and 153.8E2.D10.D6.12.12 (12.12).

[2] = target: soluble CD40 (Homo sapiens, UniProt P25942); test: ELISA-type assay, binding to soluble CD40; settings: ELISA-type assays
Chain of soluble CD40 (P25942 21-193 limits assumed): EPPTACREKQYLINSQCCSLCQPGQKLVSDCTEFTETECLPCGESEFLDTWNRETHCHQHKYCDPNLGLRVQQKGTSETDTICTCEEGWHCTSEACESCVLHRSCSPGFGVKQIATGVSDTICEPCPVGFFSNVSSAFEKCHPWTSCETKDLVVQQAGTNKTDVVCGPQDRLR
Text: as §1

[3] = test system: cancer cells from NHL and CLL patients; test: In vitro CD40 ligand-mediated proliferation of patient cancer cells; type: cell-based, human
Text: (§2) 4, 2003, Nov. 26, 2003, and Apr. 27, 2004, and assigned U.S. Patent Application Nos. 60/517,337 , 60/525,579, and 60/565,710, respectively, and International Patent Application No. PCT/US2004/037152, also entitled “Antagonist Anti-CD40 Monoclonal Antibodies and Methods for Their Use,” filed Nov. 4, 2004; the contents of each of which are herein incorporated by reference in their entirety.

[4] = test system: primary cancer cells from NHL patients; test: ADCC on primary cancer cells; type: cell-based, human; settings: in vitro
Text: as §2

[5] = test system: normal human B cells; test: Western blot of apoptosis and survival proteins in sCD40L-stimulated B cells; type: cell-based
Protocol: (§3) In these experiments, 0.6×10^6 normal human B cells from healthy donors (percent purity between 85-95%) were stimulated with 1 μg/ml sCD40L (Alexis Corporation, Bingham, Nottinghamshire, UK). […] Cells were collected at 0, 20 minutes, 2 hours, 6 hours, 18 hours, and 26 hours. Cleaved Caspase-9, cleaved Caspase-3, cleaved PARP, and β-actin controls were detected in cell lysates by Western blot.
as §3, with “Mcl-1, XIAP, CD40,” for “Cleaved Caspase-9, cleaved Caspase-3, cleaved PARP,”
as §3, with “percent” for “(percent”, “24” for “0, 20 minutes, 2 hours, 6 hours, 18 hours, and 26”, “Cleaved” for “Cleaved Caspase-9, cleaved Caspase-3, cleaved”
as §3, with “22” for “0, 20 minutes, 2 hours, 6 hours, 18 hours, and 26”, “Mcl-1, XIAP,” for “Cleaved Caspase-9, cleaved Caspase-3,”

[6] = test system: normal human B cells; test: Western blot of phosphorylated signaling proteins in sCD40L-stimulated B cells; type: cell-based; settings: 1 μg/ml sCD40L, 20 minutes
Protocol: In these experiments, 1.0×10^6 normal human B cells from healthy donors (percent purity between 85-95%) were stimulated with 1 μg/ml sCD40L (Alexis Corporation, Bingham, Nottinghamshire, UK). […] Cells were collected at 0 and 20 minutes. Phosphorylated IKKα (Ser180) and IKKβ (Ser 181) and total IKKβ controls were detected in cell lysates by Western blot.
(§4) In these experiments, 1.0×10^6 normal human B cells from healthy donors (percent purity between 85-95%) were serum starved in 1% FBS-containing media and stimulated with 1 μg/ml sCD40L (Alexis Corporation, Bingham, Nottinghamshire, UK). […] Cells were collected at 0 and 20 minutes. Phospho-IKKα, phospho-IKKβ, total IKKβ, phospho-ERK, total ERK, phospho-AKT, total AKT, phospho-p38, and total p38 were detected in cell lysates by Western blot.
as §4, with “Phospho-ERK,” for “Phospho-IKKα, phospho-IKKβ, total IKKβ, phospho-ERK, total ERK,”, “phospho-IKKα/β,” for “phospho-p38,”, “[…]” for “total p38”

[7] = test system: normal human B cells; test: Western blot of XIAP and cleaved PARP without sCD40L stimulation; type: cell-based; settings: 10 μg/ml antibody, no sCD40L, 0 to 16 hours
Protocol: Cells were collected at 0, 4, 14, and 16 hours. XIAP, cleaved PARP, and β-actin controls were detected in cell lysates by Western blot.

[8] = target: T1, CD40-TRAF2/3 signaling complex (Homo sapiens, UniProt P25942); test: CD40 immunoprecipitation, TRAF2/TRAF3 Western blot; type: cell-based; settings: 1 μg/ml sCD40L, 20 minutes
T1 construct: normal human B cells from healthy donors; endogenous in cells; host or cells: normal human B cells from healthy donors
T1 sequence (P25942 21-277, one chain of several): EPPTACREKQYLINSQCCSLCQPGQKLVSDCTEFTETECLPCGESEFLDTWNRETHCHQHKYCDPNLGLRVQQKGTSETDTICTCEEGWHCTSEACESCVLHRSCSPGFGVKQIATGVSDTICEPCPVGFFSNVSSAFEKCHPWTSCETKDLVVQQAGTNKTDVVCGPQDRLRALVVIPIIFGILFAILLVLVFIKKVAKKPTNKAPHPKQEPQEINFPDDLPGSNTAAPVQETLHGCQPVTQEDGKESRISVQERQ
Protocol: In these experiments, 4.0×10^6 normal human B cells from healthy donors (percent purity between 85-95%) were serum starved for four hours in 1% FBS-containing media and stimulated with 1 μg/ml sCD40L (Alexis Corporation, Bingham, Nottinghamshire, UK) for 20 minutes. Cells were collected at 0 and 20 minutes. CD40 was immunoprecipitated using polyclonal anti-CD40 (Santa Cruz Biotechnology, CA), and was probed in a Western blot with anti-TRAF2 mAb (Santa Cruz Biotechnology, CA), anti-TRAF3 mAb (Santa Cruz Biotechnology, CA), and anti-CD40 mAb (Santa Cruz Biotechnology, CA).

[9] = test system: monocytes; test: CD40L-induced production of VEGF; type: cell-based
Text: In another experiment, CD40L-induced production of VEGF in monocytes is examined in a manner similar to that described above.

[10] = test system: normal human B cells; test: Western blot of survival and signaling markers, rhsCD40L-stimulated B cells (Example 5, FIG. 1); type: cell-based
Text: Cells were lysed and whole cell lysates resolved by SDS-PAGE and Western blotting using antibodies specific to human cPARP, Mcl-1, Bcl-xl, p-Akt, and p-p38 MAPK. All membranes were stripped and re-probed for either β-actin or total Akt or p38 MAPK protein, as appropriate.

[11] = test system: pre-clinical tumor models; test: Pre-clinical tumor models; type: in vivo
[12] = 1 μg/ml sCD40L, 10 μg/ml antibody, 0 to 26 hours
[13] = 1 μg/ml sCD40L, 0.5, 2 and 10 μg/ml antibody, 22 hours
[14] = 2 μg/ml rhsCD40L, 10 μg/ml antibody, 24 hr

## CHIR-12.12: fully human anti-CD40 monoclonal antibody of the IgG1 isotype, hybridoma 153.8E2.D10.D6.12.12, ATCC PTA-5543, SEQ ID NO:2 and 4
[1]
  ADCC activity, killing of CD40-expressing target cells: have ADCC activity; also recorded: able to kill CD40-expressing target cells
[2]
  binding to soluble CD40: bind soluble CD40
[3]
  CD40 ligand-mediated proliferation of cancer cells: inhibiting in vitro CD40 ligand-mediated proliferation of cancer cells from NHL and CLL patients
[4]
  killing of primary cancer cells by ADCC: kill primary cancer cells from NHL patients by ADCC
[5]; [12]
  cleaved Caspase-9, cleaved Caspase-3, cleaved PARP: increased cleavage of Caspase-9, Caspase-3, and PARP; also recorded: resulted in an increase of these cleavage products
  expression of Mcl-1 and XIAP over time: reduction of XIAP and Mcl-1; also recorded: resulted in a decrease in expression of these proteins
[5]; 1 μg/ml sCD40L, 0.01-1.0 μg/ml antibody, 24 hours
  PARP cleavage: increase of PARP cleavage in sCD40L stimulated cells in a dose-dependent manner
[5]; [13]
  Mcl-1 and XIAP expression: reduced Mcl-1 and XIAP expression
  cleaved PARP expression: increased cleaved PARP expression
[6]; 10 μg/ml antibody
  phosphorylation of IKKα (Ser180) and IKKβ (Ser 181): abrogated this response to sCD40L stimulation
[6]; serum starved, 1 and 10 μg/ml antibody
  IKKα/β, ERK, AKT and p38 phosphorylation: inhibited phosphorylation; also recorded: abrogated the effects of sCD40L stimulation on these signaling pathways
[6]; serum starved
  phospho-ERK, phospho-AKT, phospho-IKKα/β, compared with PI3K/AKT and MEK inhibitors: abrogated the phosphorylation of all of these signal transduction molecules
[7]
  apoptosis (cleaved PARP, XIAP) without sCD40L stimulation: did not trigger these apoptotic effects; also recorded: does not trigger apoptosis in normal human B cells without CD40L stimulation
[8]
  CD40 expression: no changes in CD40 expression
  formation of the CD40-TRAF2/3 signaling complex: abrogated formation of the CD40-TRAF2/3 signaling complex
[9]
  CD40L-induced production of VEGF: inhibit CD40L-induced production of VEGF
[10]; [14]
  expression of anti-apoptotic proteins Mcl-1 and Bcl-xl: inhibited the expression of the anti-apoptotic proteins Mcl-1 and Bcl-xl
  phosphorylation of Akt and p38 MAPK: inhibiting the phosphorylation of the downstream signaling proteins
[10]; FIG. 1
  CD40L-induced signaling and survival of normal human B cells: blocked
[11]
  anti-tumor potency compared with rituximab: more potent anti-tumor antibody than is rituximab
